# Reference: patent US12084411B2, “Hinokitiol analogues, methods of preparing and pharmaceutical compositions thereof” (The Board of Trustees of the University of Illinois, priority 2018, dated 2024)
# Legend:
# [1] = Rate of iron (III) reduction; format: physicochemical; details: 62.5 mM ascorbate buffer
# Procedure: The rate of iron (III) reduction in the absence or presence of hinokitiol was determined using ferrozine to quantify the concentration of iron (II) similar to previously described (71). […] The absorbance at 562 nm, corresponding to Fe(ferrozine)3, was determined at the indicated time points.
# [2] = tested on: FPN-deficient mice; assay: Acute injection of hinokitiol in flatiron mice, tissue iron; format: in vivo; details: 4 hours
# Procedure: FIGS. 26A-26E show the results of acute injection of Hinokitiol in flatiron mice. Wild-type (+/+) and I (ffe/+) mice were administered hinokitiol by IP injection and were sacrificed after 4 h to measure iron content. (A) presents means f SEM (n=48/group). (B)-(E) present means±SEM (n=2/group). * P≤0.05, ** P≤0.005, and *** P≤0.001.
# To characterize the effects of hinokitiol on iron mobilization and distribution in flatiron mice, hinokitiol was administered with increasing doses (1-50 mg/kg) via intraperitoneal (IP) injection. Mice were euthanized 4 hours post-administration, and blood and a range of tissues were collected. […] Total iron in a variety of tissues including liver and spleen was further measured by inductively coupled plasma mass spectrometry (ICP-MS).
# [3] = tested on: normal MEL cells; assay: Hemoglobinization of normal MEL cells; format: cell-based, mouse; details: same concentration as in deficient system
# Procedure: Cells were then incubated at 37° C. for 72 hours unless otherwise noted. […] Hemoglobinized MEL cells were quantified three days after DMSO induction through o-dianisidine staining similar to previously reported (74). Cells were centrifuged three days after induction and rinsed with PBS. […] Cells were then imaged on an AXIO Zoom […] microscope to obtain color images. The number of stained cells were then quantified via ImageJ analysis and compared to the number of total cells in each image. To determine that hinokitiol requires DMSO induction for hemoglobinization, 2% DMSO was not added at the beginning of the experiment before a 72-hour incubation and o-dianisidine staining.
# [4] = tested on: mice injected with turpentine oil (TO); assay: Acute anemia of inflammation model, turpentine oil injection; format: in vivo; details: once daily for 3 days, 16 h post-injection
# Procedure: FIGS. 27A-27E show hinokitiol efficacy in a model of acute anemia of inflammation (Al). Mice (male; C57BL/6; 7-week-old; n=8-10) were administered turpentine oil (TO) (5 mL/kg) or saline, and euthanized 3, 6, 12, 16, 24 h post injection. (A) Hepcidin mRNA measured by qPCR. (B) Proteins quantified by Western blot analysis. (C) Tissue and serum non-heme iron measured by bathophenanthroline colorimetric assay. (D) Hematocrit measured by centrifugation of heparinized capillaries. (E) Mice given compounds indicated once daily for 3 days. On the third day, mice injected with saline or TO, and euthanized 16 h post-injection.
# Injection of turpentine oil (TO) is a common method to induce inflammation in mice. […] As a result, iron buildup occurred in the duodenum and spleen. Moreover, serum iron decreased (FIG. 27C) without affecting hematocrit values (FIG. 27D).
# [5] = Iron (II) binding affinity, ferrozine competition assay
# Procedure: Specifically, the association constant for iron (II) was determined by a ferrozine competition assay (KA of ferrozine=3.65×10^15) (60). FeCl2 (25 μM) was pre-mixed with ferrozine (75 μM) in a 25 mM MES/Tris buffer at pH=7.0 containing 62.5 mM sodium ascorbate. Then increasing concentrations of small molecule (from 40X stocks in DMSO) were added to the indicated final concentrations. The solutions were allowed to equilibrate for 24 hours before reading of the absorbance at 562 nm. […] The system was allowed to equilibrate overnight, and the absorbance corresponding to the Fe(chelator)3 complex was determined. The EC50 values for each chelator were calculated by a nonlinear curve fit (Hill1) on OriginPro by plotting the absorbance vs. concentration of titrant, and the KA for each complex was determined from the equation: KA, ligand=(KA, competitor*[EC50])/[ligand] where the ligand is the molecule originally bound to iron, and the competitor is the competing chelator.
# [6] = tested on: wild type (+/+) mice; assay: 59Fe gut absorption in wild type mice; format: in vivo; details: 1.5 mg/kg, after one hour
# Procedure: Temporal live cell imaging of labile iron levels in shDMT1 Caco-2 monolayers was performed after staining of Caco-2 monolayers with calcein green-AM (5 μM) in the apical and basolateral liquid for 30 minutes in pH=7.4 DMEM. […] Final volume administered was 1.5 mL/kg for each mouse, correcting for individual body weight. […] […] Radioactivity was quantified by gamma counting and calculated as the percentage of gavaged dose (±SEM). Experiments were performed with 4 genotyped-matched mice/day; preliminary analysis determined there were no gender effects on uptake of ^59Fe after intragastric gavage; mixed genders were used in the experiments shown.
# [7] = Hinokitiol binding selectivity by ICP-MS; details: for Extracted Metal 1:1 Hino:Metals: 1 mM Hino; for Extracted Metal 1:1 Hino:Metals / Extracted Metal 10:1 Hino:Metals: 1 mM of each metal; for Extracted Metal 10:1 Hino:Metals: 60 mM Hino
# Procedure: The binding selectivity for hinokitiol with multiple divalent metals was determined similar to previously described (32). […] The colored solution was allowed to incubate for 4 hours at room temperature. The solution was diluted in buffer, and extracted (×3) using 1:1 Hexanes:Ethyl Acetate. […] Control experiments were performed similar to those described above but in the absence of hinokitiol. No metal was detected in the organic layer by ICP-MS. Control experiments were also performed similar to those described above but using 60 mM hinokitiol. Metal content after extraction was compared to the initial metal content in the aqueous solution before extraction, and it was determined that the metal:hinokitiol complexes are extracted into the organic layer.
# [8] = tested on: shDMT1 Caco-2 monolayers; assay: Imaging of cytosolic iron with calcein green in Caco-2 monolayers; format: cell-based, Human; details: 25 μM FeCl3, 1 hour
# Procedure: Temporal live cell imaging of labile iron levels in shDMT1 Caco-2 monolayers was performed after staining of Caco-2 monolayers with calcein green-AM (5 μM) in the apical and basolateral liquid for 30 minutes in pH=7.4 DMEM. […] Final volume administered was 1.5 mL/kg for each mouse, correcting for individual body weight. […] Mice were humanely sacrificed by isoflurane overdose after 6 hours and blood was collected by cardiac puncture. Radioactivity was quantified by gamma counting and calculated as the percentage of gavaged dose (±SEM). Experiments were performed with 4 genotyped-matched mice/day; preliminary analysis determined there were no gender effects on uptake of ^59Fe after intragastric gavage; mixed genders were used in the experiments shown.
smiles,measurement,setting,value
CC(C)c1cccc(=O)c(O)c1 [hinokitiol],reduction of iron (III) in a reducing environment,[1],slowed
same,liver total iron (ICP-MS),[2]; 10 mg/kg IP,releases iron from the liver
same,liver non-heme iron,[2]; 1-50 mg/kg IP,dose-dependent decrease
same,non-heme iron in other tissues,[2]; IP,suggestive of reductions in non-heme iron
same,effect on hemoglobinization in wild type system,[3],negligible effects
same,hypoferremia induced by TO injection,[4],mitigated
same,KA for iron (II),[5]; pH 7.0,5.1×10^15
same,KA for iron (II),"[5]; pH 7.0, listed as Hinokitiol",5.1 × 10^15
same,rate of iron absorption,[6],statistically significant increase
same,Cu^II competitively bound relative to Fe^II,[7]; 1:1 Hino:Metals,10 fold
same,Extracted Metal 1:1 Hino:Metals,[7]; Co^II,0.001 ± 0.000 µmol
same,Extracted Metal 10:1 Hino:Metals,[7]; Co^II,41 ± 0.3 µmol
same,Extracted Metal 1:1 Hino:Metals,[7]; Cu^II,45.15 ± 6.46 µmol
same,Extracted Metal 10:1 Hino:Metals,[7]; Cu^II,46 ± 0.2 µmol
same,Extracted Metal 1:1 Hino:Metals,[7]; Fe^II,4.80 ± 0.61 µmol
same,Extracted Metal 10:1 Hino:Metals,[7]; Fe^II,46 ± 0.4 µmol
same,Extracted Metal 1:1 Hino:Metals,[7]; Mn^II,0.0003 ± 0.0001 µmol
same,Extracted Metal 10:1 Hino:Metals,[7]; Mn^II,37 ± 0.8 µmol
same,Extracted Metal 10:1 Hino:Metals,[7]; Ni^II,35 ± 0.3 µmol
same,Extracted Metal 1:1 Hino:Metals,[7]; Zn^II,0.0015 ± 0.0006 µmol
same,Extracted Metal 10:1 Hino:Metals,[7]; Zn^II,38 ± 0.2 µmol
same,cytosolic labile iron (calcein green),[8],increased labile iron up to 5 μM
